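In this assay, cells in 96-well plates receive the compound at five concentrations for 48 hours. Endpoints are linearly interpolated between the surrounding concentrations. GI50: concentration for 50% inhibition of growth. TGI is the concentration that stops growth completely.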
Tests used:
Experiment in all cases: NCI tumour cell line growth inhibition, 48 h
HOP-92 NSCLC = tested on: HOP-92 NSCLC
OVCAR-3 ovarian = tested on: OVCAR-3 ovarian
786-0 renal = tested on: 786-0 renal
UO-31 renal = tested on: UO-31 renal
CCRF-CEM leukemia = tested on: CCRF-CEM leukemia
SR leukemia = tested on: SR leukemia
RXF 393 renal = tested on: RXF 393 renal
TK-10 renal = tested on: TK-10 renal
M14 melanoma = tested on: M14 melanoma
SNB-75 CNS = tested on: SNB-75 CNS

Structure (SMILES) | GI50 (HOP-92 NSCLC) | TGI (HOP-92 NSCLC) | GI50 (OVCAR-3 ovarian) | TGI (OVCAR-3 ovarian) | TGI (786-0 renal) | GI50 (UO-31 renal) | TGI (UO-31 renal) | GI50 (CCRF-CEM leukemia) | TGI (CCRF-CEM leukemia) | TGI (SR leukemia) | GI50 (RXF 393 renal) | TGI (RXF 393 renal) | GI50 (TK-10 renal) | TGI (TK-10 renal) | GI50 (M14 melanoma) | TGI (M14 melanoma) | GI50 (SNB-75 CNS) | TGI (SNB-75 CNS) | GI50 (786-0 renal) | GI50 (SR leukemia)
O=C1C(Cl)=C(Nc2cccc(Cl)c2)C(=O)N1Cc1ccc(Cl)cc1Cl | 2.55 µM | 20.9 µM | 11.1 µM | 24.8 µM | 4.93 µM | 0.431 µM | 3.45 µM | 4.38 µM | > 100 µM | 8.9 µM | 0.181 µM | 3.83 µM | 11.5 µM | 31.7 µM | 4.87 µM | 21.9 µM | 1.29 µM | 9.92 µM |  | 
CCOC(=O)CN1C(=O)c2cccc3cc([N+](=O)[O-])cc(c23)C1=O |  | 6.21 µM |  | 14.9 µM | 26.3 µM |  | 27 µM |  | 1.5 µM | 0.381 µM |  | 3.89 µM |  | 30.7 µM |  | 11.5 µM |  | 22.2 µM |  | 
CC(C)C/C(CC(=O)CCC(=O)Nc1ccccc1[N+](=O)[O-])=N\NC(=O)c1cc2ccccc2cc1O |  | > 100 µM |  | 99.3 µM | > 100 µM |  | > 100 µM |  | 59.6 µM | > 100 µM |  | > 100 µM |  | > 100 µM |  | > 100 µM |  | > 100 µM |  | 
COc1ccc2c(c1)/C(=C/c1c(C)nc3sc(C)nn13)C(=O)N2 | 9.86 µM | > 77.8 µM | 0.959 µM | 37.9 µM | > 100 µM | 5.23 µM | > 100 µM | 2.52 µM | > 100 µM |  | 17.6 µM | > 100 µM | 7.43 µM | > 100 µM | 1.79 µM | > 27.9 µM | 1.58 µM | 7.14 µM | 6.08 µM | 0.31 µM
Cc1cc(I)cc(CN(C)CCCCN2CCCCC2)c1O | 6.2 µM | 38.2 µM | 20 µM | 53.4 µM | 25.4 µM | 14.2 µM | 36.6 µM |  |  | 17.9 µM | 12.9 µM | 32.6 µM | 15.4 µM | 31.1 µM | 3.31 µM | 12.4 µM | 15 µM | 32.8 µM | 12.6 µM | 4.6 µM
CC12CCC(O)CC1CCC1C2CCC2(C)C(C3=CC(=O)OC3)CCC12O (configuration not stated) |  | > 41.9 µM |  | 10.3 µM | 4.78 µM |  | 8.23 µM |  | > 100 µM | > 100 µM |  | 3.55 µM |  | > 35.4 µM |  | 19 µM |  | 28.7 µM |  | 
N#CC(c1ccc(Cl)cc1)c1cccc(C(C#N)c2ccc(Cl)cc2)n1 (configuration not stated) |  | 60.6 µM |  | > 100 µM | > 100 µM |  | 42.3 µM |  | > 100 µM | > 100 µM |  |  |  | 69.9 µM |  | > 100 µM |  | 79.4 µM |  | 
CN1C(=O)C(C)(C)C2(SC(C)(C)C2(C)C)N(C)C1=S (configuration not stated) |  | > 100 µM |  | > 100 µM | > 100 µM |  | > 100 µM |  | > 100 µM | > 100 µM |  | > 100 µM |  |  |  | > 100 µM |  | > 100 µM |  | 
O=C(O)CSc1ccc([N+](=O)[O-])cc1[N+](=O)[O-] |  | > 100 µM |  | > 100 µM | > 100 µM |  | > 100 µM |  |  | > 100 µM |  | > 100 µM |  | > 100 µM |  | > 100 µM |  | > 100 µM |  | 

— PubChem BioAssay (NCI)
